Among the test systems are A549 NSCLC; HCT-116 colon; HL-60(TB) leukemia; MALME-3M melanoma; NCI-H23 lung; NCI-H522 lung; NCI/ADR-RES ovarian; SK-MEL-28 melanoma; SR leukemia; UO-31 renal.
Common to all, as to assay: NCI tumour cell line growth inhibition, 48 h

Structures are written as SMILES. Where “and” joins values, the source holds several entries; their conditions need not be identical. Equal values may be shown once.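 Following 48 hours of exposure in 96-well plates, responses at five concentrations were used to interpolate endpoints linearly. GI50: concentration for 50% inhibition of growth. TGI is the concentration that stops growth completely.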 Where a SMILES comes first, the peptide text is derived from it. [ ]: non-standard residue; d: D form. The star is where a group is joined. ξ: configuration not given here. X3 = COc1ccc(C(N*)c2ccc(OC)cc2)cc1; NMeF = CN[C@@H](Cc1ccccc1)C(=O)O; NMeD = CN[C@@H](CC(=O)O)C(=O)O; NMeV = CN[C@H](C(=O)O)C(C)C; ξNMeV = CNC(C(=O)O)C(C)C; Boc = CC(C)(C)OC(=O)*; ξNMeA = CNC(C)C(=O)O; ξV = CC(C)C(N)C(=O)O Where only a bound is given, the exact number is not on record here.

As to `COc1ccc(/C=N/NC(=O)c2cccc3cc[nH]c23)cc1O`, the GI50 in the assay with A549 NSCLC was 5.36 µM; with HCT-116 colon it was 1.72 µM; in the assay on HL-60(TB) leukemia it was 0.55 µM; in the assay on MALME-3M melanoma, 1.96 µM; in the assay on NCI-H23 lung it was 6.57 µM; in the assay on NCI-H522 lung it was 2.26 µM. In addition, the GI50 in the assay on NCI/ADR-RES ovarian is 1.86 µM; in the assay on SK-MEL-28 melanoma it was 6.46 µM; in the assay with SR leukemia, 0.349 µM; with UO-31 renal it was 6.51 µM. The TGI was > 100 µM in the assay with A549 NSCLC; > 100 µM in the assay with HCT-116 colon; > 22.7 µM in the assay with HL-60(TB) leukemia; > 100 µM in the assay with MALME-3M melanoma; > 100 µM in the assay with NCI-H23 lung; > 100 µM in the assay on NCI-H522 lung. Besides, the TGI in the assay with NCI/ADR-RES ovarian is > 100 µM; with SK-MEL-28 melanoma, > 100 µM; with SR leukemia it was > 41.2 µM; in the assay on UO-31 renal it was > 100 µM.
In the case of `COc1ccc(C(NC(=O)C[C@@H](C(=O)N(C)C(C)C(=O)O)N(C)C(=O)[C@@H]2CCCN2C(=O)[C@H](C(C)C)N(C)C(=O)C(C(C)C)N(C)C(=O)[C@H](Cc2ccccc2)N(C)C(=O)C(NC(=O)OC(C)(C)C)C(C)C)c2ccc(OC)cc2)cc1` (some centres undefined) (Boc-[ξV][NMeF][ξNMeV][NMeV]P[NMeD](X3)[ξNMeA]-OH), the GI50 with A549 NSCLC is 17.1 µM; in the assay with HCT-116 colon, 17.3 µM; in the assay on HL-60(TB) leukemia, 24 µM; in the assay with MALME-3M melanoma, 20.5 µM; with NCI-H23 lung, 23.1 µM; with NCI-H522 lung, 17.5 µM. The GI50 was 17.1 µM with SK-MEL-28 melanoma, 0.00375 µM in the assay on SR leukemia and 17.6 µM in the assay on UO-31 renal. Besides, the TGI was > 37.5 µM and 31.7 µM in the assay with A549 NSCLC; 36.2 µM and 34.6 µM with HCT-116 colon; 18.7 µM and 45.2 µM in the assay with HL-60(TB) leukemia; 37.5 µM and 37.9 µM in the assay on MALME-3M melanoma; 37.5 µM and 53.4 µM with NCI-H23 lung; 27.4 µM and 31.3 µM in the assay with NCI-H522 lung. For the same molecule, the TGI with NCI/ADR-RES ovarian is > 37.5 µM; with SK-MEL-28 melanoma it was 13.6 µM and 30.9 µM; in the assay with SR leukemia, 37.5 µM and 36 µM; in the assay with UO-31 renal, 37.5 µM and 31.5 µM.
In the case of `N#Cc1c[nH]n2c(N=Nc3ccc(Cl)cc3)c(O)nc12`, the GI50 in the assay on A549 NSCLC was 31.9 µM; in the assay with HCT-116 colon, 92.8 µM; in the assay on HL-60(TB) leukemia it was > 100 µM; in the assay with MALME-3M melanoma it was 41.6 µM; in the assay with NCI-H23 lung, 18 µM; in the assay with NCI-H522 lung, 26.9 µM. Moreover, the GI50 in the assay on NCI/ADR-RES ovarian is 25 µM; in the assay on SK-MEL-28 melanoma, 44.4 µM; with SR leukemia, 25.4 µM; in the assay with UO-31 renal, 32.3 µM. Besides, the TGI is > 100 µM in the assay with A549 NSCLC; > 100 µM in the assay on HCT-116 colon; > 100 µM in the assay with HL-60(TB) leukemia; > 100 µM in the assay on MALME-3M melanoma; 51.2 µM in the assay with NCI-H23 lung; > 100 µM with NCI-H522 lung. Moreover, the TGI with NCI/ADR-RES ovarian was 83.8 µM; with SK-MEL-28 melanoma, > 100 µM; with SR leukemia, > 100 µM; in the assay on UO-31 renal it was > 100 µM.
With `CCCCCCCCCCn1cc[n+](C)c1`, the GI50 with A549 NSCLC is 3.79 µM; in the assay with HCT-116 colon, 1.37 µM; in the assay on HL-60(TB) leukemia, 0.226 µM; with MALME-3M melanoma it was 2.26 µM; in the assay on NCI-H23 lung it was 0.648 µM; in the assay with NCI-H522 lung, 1.86 µM. In addition, the GI50 in the assay with NCI/ADR-RES ovarian was 47.4 µM; in the assay with SK-MEL-28 melanoma, 3.33 µM; with SR leukemia, 0.163 µM; in the assay on UO-31 renal, 10.3 µM. For the same molecule, the TGI in the assay on A549 NSCLC was 22.5 µM; with HCT-116 colon, > 36.9 µM; with HL-60(TB) leukemia it was 1.7 µM; in the assay with MALME-3M melanoma, 17.6 µM; in the assay on NCI-H23 lung, 28 µM; with NCI-H522 lung it was 10.4 µM. The TGI with NCI/ADR-RES ovarian is > 100 µM; in the assay on SK-MEL-28 melanoma, 15.1 µM; with SR leukemia it was 4.16 µM; with UO-31 renal, 50.7 µM.
For the molecule `Nc1n[nH]c2cccc(C#Cc3cccc(C(=O)Nc4ccc(CN5CCOCC5)c(C(F)(F)F)c4)c3)c12`, the GI50 in the assay with A549 NSCLC was 3.13 µM; in the assay on HCT-116 colon it was 1.53 µM; in the assay on HL-60(TB) leukemia it was 1.17 µM; with MALME-3M melanoma, 0.446 µM; with NCI-H23 lung, 2.1 µM; with NCI-H522 lung it was 2.52 µM. In addition, the GI50 in the assay on NCI/ADR-RES ovarian was 3.07 µM; with SK-MEL-28 melanoma, 1.88 µM; in the assay on SR leukemia, 1.97 µM; in the assay with UO-31 renal, 1.9 µM. In addition, the TGI with A549 NSCLC stood at 11.3 µM; with HCT-116 colon, 5.2 µM; in the assay on HL-60(TB) leukemia it was 5 µM; with MALME-3M melanoma, 2.69 µM; in the assay on NCI-H23 lung it was 11.3 µM; in the assay on NCI-H522 lung, 9.28 µM. The TGI in the assay on NCI/ADR-RES ovarian was > 100 µM; in the assay on SK-MEL-28 melanoma, 7.08 µM; with SR leukemia, > 100 µM; in the assay on UO-31 renal, 5.82 µM.
For the molecule `O=C(/C=C/c1ccc(O)cc1)c1ccc(O)cc1`, the TGI in the assay on A549 NSCLC was > 100 µM; in the assay with HCT-116 colon, 36.3 µM; with HL-60(TB) leukemia it was > 75.1 µM; with MALME-3M melanoma, 70 µM; in the assay with NCI-H23 lung it was 62.6 µM; in the assay with NCI-H522 lung, 9.22 µM. Further, the TGI with NCI/ADR-RES ovarian is > 63.1 µM; in the assay on SK-MEL-28 melanoma, 61.3 µM; in the assay with SR leukemia, 51.3 µM; with UO-31 renal, 51.2 µM.
Turning to `Nc1ccc(C2=NNC(=O)Cc3cc4c(cc32)OCCO4)cc1Cl`, the GI50 was 2.95 µM with A549 NSCLC; 2.64 µM with HCT-116 colon; 1.72 µM in the assay on HL-60(TB) leukemia; 4.13 µM in the assay with MALME-3M melanoma; 5.28 µM in the assay with NCI-H23 lung; 2.02 µM in the assay on NCI-H522 lung. Moreover, the GI50 with NCI/ADR-RES ovarian is 1.3 µM; with SK-MEL-28 melanoma, 9.1 µM; in the assay on SR leukemia, 1.37 µM; in the assay on UO-31 renal, 16.8 µM. Besides, the TGI with A549 NSCLC was > 50 µM; with HCT-116 colon it was > 50 µM; with HL-60(TB) leukemia, 12.3 µM; with MALME-3M melanoma it was > 50 µM; in the assay on NCI-H23 lung, > 50 µM; in the assay on NCI-H522 lung, 23.5 µM. The TGI with NCI/ADR-RES ovarian is 7.32 µM; in the assay on SK-MEL-28 melanoma, > 50 µM; with SR leukemia it was > 50 µM; in the assay with UO-31 renal, > 50 µM.
Consider `CCOC(=S)SCC(=O)O`, for which the TGI was > 100 µM with A549 NSCLC; > 100 µM in the assay with HCT-116 colon; 5.74 µM with HL-60(TB) leukemia; > 100 µM with MALME-3M melanoma; > 100 µM in the assay with NCI-H23 lung; > 100 µM in the assay on NCI-H522 lung. In addition, the TGI with NCI/ADR-RES ovarian, in the assay on SK-MEL-28 melanoma, with SR leukemia and in the assay with UO-31 renal was > 100 µM each time.

Values taken from PubChem BioAssay (NCI).
